Measured values from patent publication US20060258670A1, “New phenylpyridylpiperazine compounds” (priority 2005, published 2006).

Legend:
Adult male Wistar rats = experiment: Electroencephalographic recordings on freely moving rats; format: in vivo; conditions: Wistar rat, EEG
Procedure: Adult male Wistar rats were chronically implanted with electrodes placed over the frontal and panetal cortex. Cortical electroencephalogram (EEG) was recorded from rats placed inside cages in a sound attenuating-room. Compounds and vehicle were administered in a random order at 10:00 AM on the same days with a minimum of 3 days between each administration, allowing each rat to serve as its own control. Absolute power of slow wave delta band activity (1-4 Hz), that predominates during slow wave sleep and disappears during wakefulness and rapid eyes movement sleep, was averaged over successive periods of 30 min. Over 30 min, low and high values of slow wave delta power are signs of arousal and sleep, respectively.

[1] = target: T1, type H3 central histamine receptors (Mus musculus, UniProt P58406); experiment: Cerebral levels of N^t-methylhistamine in the NMRI mouse (ex vivo, RIA); conditions: one hour after treatment, versus carrier
T1 construct: from tissue; host or cells: brain of living NMRI mice
T1 sequence (P58406 whole entry): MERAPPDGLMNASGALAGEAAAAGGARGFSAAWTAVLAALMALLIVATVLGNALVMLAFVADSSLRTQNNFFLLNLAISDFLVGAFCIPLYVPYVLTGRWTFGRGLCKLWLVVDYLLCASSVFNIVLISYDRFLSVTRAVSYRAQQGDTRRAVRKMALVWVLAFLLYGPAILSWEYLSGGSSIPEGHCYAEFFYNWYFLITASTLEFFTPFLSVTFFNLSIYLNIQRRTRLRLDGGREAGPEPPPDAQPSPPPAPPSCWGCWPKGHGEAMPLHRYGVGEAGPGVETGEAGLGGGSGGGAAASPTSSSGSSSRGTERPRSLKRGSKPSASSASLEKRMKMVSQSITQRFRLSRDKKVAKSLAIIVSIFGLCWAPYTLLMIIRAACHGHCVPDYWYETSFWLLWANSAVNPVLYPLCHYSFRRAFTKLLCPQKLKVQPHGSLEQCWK
Procedure: The purpose of this study, which was carried out in accordance with the method of Taylor et al. (Biochem. Pharm., 1992, 44, 1261-1267), is to evaluate the ex vivo activity of the compounds of the present invention as antagonists of type H3 central histamine receptors. […] An increase in the cerebral concentrations of N^t-methylhistamine indicates an increase in the turn-over of histamine by blockage of the type H3 central histamine receptors.
NMRI mice (18-20 g) are treated intraperitoneally or orally with compounds of the present invention or with their carrier (20 ml/kg). One hour after the pharmacological treatment, the animals are sacrificed, and their brains are removed, frozen in liquid nitrogen, weighed and homogenised in 0.1N HClO4 at 4° C. The homogenised products are centrifuged (15 000 g, 17 min, 4° C.). The supernatants are recovered and divided into aliquots. The aliquots are frozen in, liquid nitrogen and stored at −80° C. until analysis.
Determination of the cerebral levels of N^t-methylhistamine is carried out by radioimmunological assay (RIA) using an assay kit. The tissue levels of N^t-methylhistamine are expressed in […] of fresh brain. The comparison of the cerebral levels of N^t-methylhistamine between animals treated with the carrier (controls) and animals treated with compounds of the present invention is carried out by single-factor variance analysis followed, if necessary, by a complementary analysis (Dunnett's test).

SMILES	duration of significant reduction of slow wave delta power (cortical activation and arousal) (Adult male Wistar rats; 0.3 mg/kg)	sleep latency: first slow wave sleep episode after administration (Adult male Wistar rats; 3 mg/kg, control group 45±5 minutes)	increase of endogenous cerebral concentrations of N^t-methylhistamine ([1]; 10 mg/kg PO)	increase of endogenous cerebral concentrations of N^t-methylhistamine ([1]; 3 mg/kg PO)
CC(C)N1CCN(c2ccc(-c3ccc(S(=O)(=O)N4CCOCC4)cc3)cn2)CC1.Cl.Cl [Example 1]	150 min	73 ± 5 min	105%	
CCN1CCN(c2ccc(-c3ccc(S(=O)(=O)N4CCCCC4)cc3)cn2)CC1.Cl.Cl [Example 5]			197%	
CC(C)N1CCN(c2ccc(-c3ccc(S(=O)(=O)N4CCN(C)CC4)cc3)cn2)CC1.Cl.Cl.Cl [Example 9, 1-Isopropyl-4-(5-{4-[(4-methylpiperazin-1-yl)sulphonyl]phenyl}pyridin-2-yl)piperazine trihydrochloride]			121%	
CC(C)CN1CCN(c2ccc(-c3ccc(S(=O)(=O)N4CCOCC4)cc3)cn2)CC1.Cl.Cl [Example 21, 4-({4-[6-(4-Isobutylpiperazin-1-yl)pyridin-3-yl]phenyl}sulphonyl)-morpholine dihydrochloride]				168%
